Key:
Akt1 mRNA = test: siRNA inhibition of Akt1 mRNA in MDA435 breast cancer cells (Example 1, FIG. 2); assay type: cell-based; conditions: presence or absence of serum, Akt1 message normalized to average of HPRT and GUSB
Procedure: (§1) For each transfection mixture (which are examples of compositions in accordance with the present invention), a lipitoid or lipitoid/cholesteroid combination delivery vehicle was prepared to a working concentration of 0.5 mM in water and mixed to yield a uniform solution. The siRNA was prepared to a working concentration of 20 μM in buffer supplied with the siRNAs. In this example, the siRNAs were for Akt1 mRNA and had the sequence […] (SEQ ID No: 1) with two 2′ O-methyl UU (RNA) nucleotide 3′-overhangs and phosphodiester links throughout (available from Integrated DNA Technologies). The siRNA was diluted in OptiMEM™ (Gibco/BRL), in a microfuge tube, to 1 μM, or approximately 15 μg oligo/ml of OptiMEM™. In a separate microfuge tube, vehicle, typically in the amount of about 3.75 nmol vehicle/100 pmol siRNA, was diluted into the same volume of OptiMEM™ used to dilute the siRNA. […] Note that the exact ratio of siRNA to vehicle must be determined empirically for each cell type, but generally is about this amount. The diluted siRNA was immediately added to the diluted vehicle and mixed by pipetting up and down. The mixture was allowed to incubate at room temperature for 10 minutes.
Cells were plated on tissue culture dishes one day in advance of transfection, in growth media with serum, to yield a density at transfection of 60-90%. […]

firefly luciferase = test: Loss of luciferase activity after siRNA transfection, Promega Dual-Luciferase Reporter Assay (Example 2, FIG. 3); assay type: cell-based; conditions: MDA231 stably expressing luciferase, control non-transfected cell line
Procedure: as §1
Cells were plated on tissue culture dishes one day in advance of transfection, in growth media with serum, to yield a density at transfection of 60-90%. The siRNA/vehicle mixture was added to the cells immediately after mixing and incubation, to a final concentration of 50-100 nM siRNA in half the normal growth medium volume. Cells were incubated with the transfection mixture at 37° C., 5% CO2 for 4-24 hours. […]
Transfection mixtures were prepared using siRNA against firefly luciferase (CGUACGCGGAAUACUUCGA (SEQ ID No: 2); from Elbashir et al., Nature, 411, 494 (2001)) and several different delivery vehicles in accordance with the present invention as described herein (L1, L2, L1/C1, L4 1L1/3C1) substantially as described in Example 1. Luciferase activity was quantified with the Promega Dual-Luciferase Reporter Assay System according to package directions. […]

Row | luciferase activity after transfection of siRNA against luciferase (firefly luciferase) | Substance | Akt1 expression after transfection of siRNA directed against Akt1 mRNA (Akt1 mRNA)
1 | substantially reduced | DMPE(NaeNiaNia)3 [Lipitoid L2] | loss of Akt1 expression
2 | substantially reduced | DMPE(NaeNmpeNmpe)3 [Lipitoid L1] | –
3 | substantially reduced | NddNol(NaeNmpeNmpe)3 [Lipitoid L4] | –
4 | – | NtdNhd(NaeNmpeNmpe)3 [Lipitoid L3] | loss of Akt1 expression

Reference: patent publication US20150031743A1, “CELL TRANSFECTING FORMULATIONS OF SMALL INTERFERING RNA, RELATED COMPOSITIONS AND METHODS OF MAKING AND USE” (NOVARTIS VACCINES AND DIAGNOSTICS, INC., priority 2003, published 2015)
